This passage reports IC50 results from patent US20250270200A1, “CTPS1 INHIBITORS AND USES THEREOF” (Nimbus Clotho, Inc., priority 2022, published 2025).

Structures are written as SMILES. Where only a bound is given, the exact number is not on record here.

The test concerns the target T1, human CTPS1 (Homo sapiens, UniProt P17812).
T1 sequence (P17812 1-591): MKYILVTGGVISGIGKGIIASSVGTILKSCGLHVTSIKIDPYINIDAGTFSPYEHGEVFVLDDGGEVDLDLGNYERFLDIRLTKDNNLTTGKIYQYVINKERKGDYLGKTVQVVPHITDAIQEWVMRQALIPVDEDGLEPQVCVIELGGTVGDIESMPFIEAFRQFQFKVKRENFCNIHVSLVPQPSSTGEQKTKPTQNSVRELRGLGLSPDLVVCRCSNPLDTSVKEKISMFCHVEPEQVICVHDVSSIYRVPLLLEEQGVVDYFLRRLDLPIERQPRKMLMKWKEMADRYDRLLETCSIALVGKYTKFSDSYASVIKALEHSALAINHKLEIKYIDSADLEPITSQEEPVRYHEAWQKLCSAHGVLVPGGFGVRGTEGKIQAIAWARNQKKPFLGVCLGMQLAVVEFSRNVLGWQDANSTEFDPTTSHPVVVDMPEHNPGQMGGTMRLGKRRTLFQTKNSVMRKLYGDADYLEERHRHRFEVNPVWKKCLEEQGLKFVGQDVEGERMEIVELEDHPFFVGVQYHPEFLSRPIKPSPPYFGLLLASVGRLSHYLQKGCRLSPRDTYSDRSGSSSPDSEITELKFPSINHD
In words: ADP-Glo assay, human CTPS1 enzyme inhibition. Format: biochemical. As to conditions: wild-type human CTPS1, 25 nM enzyme; ADP-Glo; read-out: ADP-Glo_WT_hCTPS1—25 nM_IC50 (IC50). As to the method:
The enzyme inhibitory activities of the compounds of the invention against the target of interest were determined using the ADP-Glo™ assay (Promega). Assays for human CTPS1 and CTPS2 were performed in 1× assay buffer containing 50 mM HEPES (Life Technologies), 10 mM Mg2+, 5 mM KCl, 2 mM DTT, 0.01% F-127, pH to 7.4 accordingly. All reagents are from Sigma-Aldrich, unless specified otherwise. Purified human full length active N-terminal FLAG-8×HIS-TEV tagged CTPS1 (UniprotKB—P17812, […]-CTPS1[1-591]) was generated using a mammalian expression system at Viva Biotech (Shanghai) Ltd.
Purified human CTPS1 protein was prepared in 1× assay buffer to the final working protein concentration required for the reaction. A 2.5 μL volume per well of human CTPS 1 protein was mixed with 0.1 μL per well of test compound dissolved in DMSO and pre-incubated at 25 degrees C. for 10 minutes. 2.5 μL per well of the reaction precursors ATP (UltraPure ATP from ADP-Glo™ kit) and UTP were then added and pre-incubated for an additional 10 minutes at 25 degrees C. Finally, the reaction was initiated by the addition of 5 μL of the reaction precursors L-glutamine and GTP. The final concentration of all reaction components in the assay: ATP (120 μM), UTP (160 μM), GTP (60 μM), L-Glutamine (100 μM), DMSO (1%), hCTPS1 (25 nM). This mixture was incubated for an appropriate amount of time within the determined linear phase of the reaction at 25 degrees C. under sealed plate conditions with constant agitation at 500 revolutions per minute (rpm). ADP-Glo™ reagent was added for 60 minutes (10 μL per well) and subsequently ADP-Glo™ development reagent was added for 60 minutes (20 μL per well) prior to signal detection in a microplate reader (Envision Multilabel Reader, Perkin Elmer). Following each reagent addition over the course of the assay, assay plates were pulse centrifuged for 1 minute at 1000 rpm.
The enzyme converts ATP to ADP and the ADP-Glo™ reagent subsequently depletes any remaining ATP in the reaction system. The ADP-Glo™ detection reagents converts the ADP that has been produced by the enzyme back into ATP, which is then utilized as a substrate together with luciferin for the enzyme luciferase. Light generated by this chemiluminescent reaction is quantified and is directly proportional to the amount of ADP produced by the CTPS1 enzyme reaction. […]
(In ADP-Glo the light output rises with the ADP produced.)

What is called IC50 is the point on the concentration scale where inhibition reaches its midpoint. Consider `COCC[C@H](NC(=O)c1ncc(-c2cnn3ccc(Cl)cc23)s1)c1cc(NS(=O)(=O)C2CC2)ccn1` (single isomer, unassigned) [I-1], for which the IC50 was 5 to 25 nM. As for `COCC[C@@H](NC(=O)c1ncc(-c2cnn3ccc(Cl)cc23)s1)c1cc(NS(=O)(=O)C2CC2)ccn1` (single isomer, unassigned) [I-2], the IC50 lay in the range of 5 to 25 nM.

Consider `COC[C@H](NC(=O)c1ncc(-c2cnn3ccc(Cl)cc23)s1)c1cc(NS(=O)(=O)C2CC2)ccn1` (single isomer, unassigned) [I-3], for which the IC50 was 5 to 25 nM. Regarding `COC[C@@H](NC(=O)c1ncc(-c2cnn3ccc(Cl)cc23)s1)c1cc(NS(=O)(=O)C2CC2)ccn1` (single isomer, unassigned) [I-4], the IC50 was 5 to 25 nM.

Regarding `CCOc1cncc(-c2ccc(C(=O)N[C@@H](CCN3CCCCC3)c3cc(NS(=O)(=O)C4CC4)ccn3)c(F)c2F)n1` (single isomer, unassigned) [I-6], the IC50 is more than 100 nM. For the compound `CCOc1cncc(-c2ccc(C(=O)N[C@H](CCN3CCCCC3)c3cc(NS(=O)(=O)C4CC4)ccn3)c(F)c2F)n1` (single isomer, unassigned) [I-7], the IC50 was 5 to 25 nM. `O=C(N[C@@H](CCN1CCCCC1)c1cc(NS(=O)(=O)C2CC2)ccn1)c1ncc(-c2cnn3ccc(Cl)cc23)s1` (single isomer, unassigned) [I-9]: the IC50 was more than 100 nM. The value for `O=C(N[C@H](CCN1CCCCC1)c1cc(NS(=O)(=O)C2CC2)ccn1)c1ncc(-c2cnn3ccc(Cl)cc23)s1` (single isomer, unassigned) [I-10] was 5 to 25 nM. With `CCOc1cncc(-c2cnc(C(=O)N[C@@H](COC)c3nccc(NS(=O)(=O)C4CC4)c3F)s2)n1` (single isomer, unassigned) [I-11], the IC50 was in the range of 5 to 25 nM. Take `CCOc1cncc(-c2cnc(C(=O)N[C@H](COC)c3nccc(NS(=O)(=O)C4CC4)c3F)s2)n1` (single isomer, unassigned) [I-12]: the IC50 is 5 to 25 nM. Under `CCOc1cncc(-c2cnc(C(=O)N[C@@H](CCN(C)C3CCCCC3)c3cc(NS(=O)(=O)C4CC4)ccn3)s2)n1` (single isomer, unassigned) [I-13] stands 50 to 100 nM. Regarding `CCOc1cncc(-c2cnc(C(=O)N[C@H](CCN(C)C3CCCCC3)c3cc(NS(=O)(=O)C4CC4)ccn3)s2)n1` (single isomer, unassigned) [I-14], the IC50 was in the range of 5 to 25 nM. With `CCOc1cncc(-c2cnc(C(=O)N[C@@H](CCN3CCC(F)CC3)c3cc(NS(=O)(=O)C4CC4)ccn3)s2)n1` (single isomer, unassigned) [I-15], the IC50 was in the range of 50 to 100 nM. The value for `CCOc1cncc(-c2cnc(C(=O)N[C@H](CCN3CCC(F)CC3)c3cc(NS(=O)(=O)C4CC4)ccn3)s2)n1` (single isomer, unassigned) [I-16] was 5 to 25 nM. With `CCOc1cncc(-c2cnc(C(=O)N[C@H](CCN3CCCC4(CC4)C3)c3cc(NS(=O)(=O)C4CC4)ccn3)s2)n1` (single isomer, unassigned) [I-17], the IC50 was not above 5 nM. The value for `CCOc1cncc(-c2cnc(C(=O)N[C@@H](CCN3CCCC4(CC4)C3)c3cc(NS(=O)(=O)C4CC4)ccn3)s2)n1` (single isomer, unassigned) [I-18] was more than 100 nM; that for `O=C(N[C@H](c1cc(NS(=O)(=O)C2CC2)ccn1)[C@H]1CCOC1)c1ncc(-c2cnn3ccc(Cl)cc23)s1` (single isomer, unassigned) [I-22] was 5 to 25 nM. As for `O=C(N[C@H](c1cc(NS(=O)(=O)C2CC2)ccn1)[C@@H]1CCOC1)c1ncc(-c2cnn3ccc(Cl)cc23)s1` (single isomer, unassigned) [I-23], the IC50 lay in the range of 5 to 25 nM.

For the compound `O=C(N[C@@H](c1cc(NS(=O)(=O)C2CC2)ccn1)[C@@H]1CCOC1)c1ncc(-c2cnn3ccc(Cl)cc23)s1` (single isomer, unassigned) [I-24], the IC50 is 5 to 25 nM. Consider `O=C(N[C@@H](c1cc(NS(=O)(=O)C2CC2)ccn1)[C@H]1CCOC1)c1ncc(-c2cnn3ccc(Cl)cc23)s1` (single isomer, unassigned) [I-25], for which the IC50 lay within 5 to 25 nM. The value for `CCOc1cncc(-c2cnc(C(=O)N[C@@H](C[C@@H]3CCCCN3C(C)C)c3cc(NS(=O)(=O)C4CC4)ccn3)s2)n1` (single isomer, unassigned) [I-26] was more than 100 nM; that for `CCOc1cncc(-c2cnc(C(=O)N[C@H](C[C@H]3CCCCN3C(C)C)c3cc(NS(=O)(=O)C4CC4)ccn3)s2)n1` (single isomer, unassigned) [I-27] was 5 to 25 nM; that for `CCOc1cncc(-c2cnc(C(=O)N[C@@H](C[C@H]3CCCCN3C(C)C)c3cc(NS(=O)(=O)C4CC4)ccn3)s2)n1` (single isomer, unassigned) [I-28] was not above 5 nM. In the case of `CCOc1cncc(-c2cnc(C(=O)N[C@H](C[C@@H]3CCCCN3C(C)C)c3cc(NS(=O)(=O)C4CC4)ccn3)s2)n1` (single isomer, unassigned) [I-29], the IC50 was more than 100 nM. The value for `CCOc1cncc(-c2cnc(C(=O)N[C@@H](CN3C[C@H]4COC[C@H]4C3)c3cc(NS(=O)(=O)C4CC4)ccn3)s2)n1` (single isomer, unassigned) [I-30] was 25 to 50 nM. The value for `CCOc1cncc(-c2cnc(C(=O)N[C@H](CN3C[C@H]4COC[C@H]4C3)c3cc(NS(=O)(=O)C4CC4)ccn3)s2)n1` (single isomer, unassigned) [I-31] was 5 to 25 nM. Consider `CCOc1cncc(-c2cnc(C(=O)N[C@@H](CN3CCOC[C@H]3C)c3cc(NS(=O)(=O)C4CC4)ccn3)s2)n1` (single isomer, unassigned) [I-32], for which the IC50 is 25 to 50 nM. Under `CCOc1cncc(-c2cnc(C(=O)N[C@H](CN3CCOC[C@H]3C)c3cc(NS(=O)(=O)C4CC4)ccn3)s2)n1` (single isomer, unassigned) [I-33] stands 5 to 25 nM.

In the case of `CCOc1cncc(-c2cnc(C(=O)N[C@@H](CN3CCOC[C@@H]3C)c3cc(NS(=O)(=O)C4CC4)ccn3)s2)n1` (single isomer, unassigned) [I-34], the IC50 was in the range of 5 to 25 nM. As to `CCOc1cncc(-c2cnc(C(=O)N[C@H](CN3CCOC[C@@H]3C)c3cc(NS(=O)(=O)C4CC4)ccn3)s2)n1` (single isomer, unassigned) [I-35], the IC50 is not above 5 nM. With `CCOc1cncc(-c2cnc(C(=O)N[C@@H](CN3[C@@H]4CC[C@H]3COC4)c3cc(NS(=O)(=O)C4CC4)ccn3)s2)n1` (single isomer, unassigned) [I-36], the IC50 fell in the range of 50 to 100 nM. Under `CCOc1cncc(-c2cnc(C(=O)N[C@H](CN3[C@@H]4CC[C@H]3COC4)c3cc(NS(=O)(=O)C4CC4)ccn3)s2)n1` (single isomer, unassigned) [I-37] stands 5 to 25 nM; under `CCOc1cncc(-c2cnc(C(=O)N[C@@H](CN3CCCC3)c3cccc(NS(=O)(=O)C(F)F)c3)s2)n1` (single isomer, unassigned) [I-38], 5 to 25 nM; under `CCOc1cncc(-c2cnc(C(=O)N[C@H](CN3CCCC3)c3cccc(NS(=O)(=O)C(F)F)c3)s2)n1` (single isomer, unassigned) [I-39], 25 to 50 nM. Consider `CCOc1cncc(-c2cnc(C(=O)N[C@H](CN3CCN(C4CC4)CC3)c3cccc(NS(=O)(=O)C(F)F)c3)s2)n1` (single isomer, unassigned) [I-40], for which the IC50 lay within 25 to 50 nM.

With `CCOc1cncc(-c2cnc(C(=O)N[C@@H](CN3CCN(C4CC4)CC3)c3cccc(NS(=O)(=O)C(F)F)c3)s2)n1` (single isomer, unassigned) [I-41], the IC50 is 5 to 25 nM.

Consider `CCOc1cncc(-c2cnc(C(=O)N[C@H](c3cc(NS(=O)(=O)C4CC4)ccn3)C(C)(C)CN(C)C)s2)n1` (single isomer, unassigned) [I-42], for which the IC50 was 50 to 100 nM.
